Source: article PMC11433870, “Neurotoxicity, Neuroprotection, In Vitro MAOA/MAOB Inhibitory Activity Assessment, Molecular Docking, and Permeability Assay Studies of Newly Synthesized Hydrazones Containing a Pyrrole Ring” (Molecules, 2024)
“And” between values parts separate entries of the source, which are not always exact repeats. Equal entries are not always repeated.

What was measured:
[1] = pH 7.4, 50 µM, 4 h, 25 °C; Pe calculated in 10^−6 cm/s, presented as −logPe
[2] = system: isolated rat brain microsomes; assay: Fe2+/AA-induced non-enzyme lipid peroxidation model: MDA production; format: cell-based; conditions: 50 µM in combination with Fe2+/AA, compared to the toxic agent
Method: (§1) The brain was homogenized in 9 volume parts of 0.1 M Tris buffer containing: 0.1 mM dithiothreitol, 0.1 mM phenylmethylsulfonyl fluoride, 0.2 mM EDTA, 1.15% KCl, and 20% (v/v) glycerol (pH 7.4). The resulting homogenate was centrifuged twice at 17,000× g for 30 min. The supernatants from the two centrifugations were pooled and centrifuged twice at 100,000× g for 1 h. The pellet was frozen in 0.1 M Tris buffer.
Non-enzyme-induced lipid peroxidation was induced with 20 μM ferrous sulfate solution and 0.5 mM ascorbic acid solution [62].
(§2) After completion of incubation of the microsomes with the substances and toxic agent, the reaction was stopped by the addition of 0.5 mL of 20% trichloroacetic acid, followed by 0.5 mL of 0.67% thiobarbituric acid. The ongoing reactions are associated with the formation of a colored complex between the malondialdehyde formed and thiobarbituric acid. The determination of MDA was spectrophotometric at 535 nm. A molar extinction coefficient of […] was used for the calculation.

[3] = system: isolated rat brain mitochondria; assay: t-BuOOH-induced oxidative stress model: GSH level; conditions: 50 µM in combination with t-BuOOH (75 µM), compared to the toxic agent
[4] = system: isolated rat brain mitochondria; assay: Neurotoxicity: MDA production in brain mitochondria, substances applied alone; format: cell-based; conditions: 50 µM applied alone, compared to control
Method: (§3) Synaptosomes and mitochondria were obtained by multiple, subcellular fractionation using a Percoll gradient. The necessary brain homogenate was prepared and centrifuged at 1000× g for 5 min at +4 °C. After centrifugation, the supernatants were collected and centrifuged again at 1000× g for 5 min at +4 °C. The supernatants from the two centrifugations were mixed and distributed into four tubes. The tubes were centrifuged at 10,000× g for 20 min at +4 °C three times. The last two centrifugations were for purification of synaptosomes and mitochondria.
(§4) The isolation of the required fractions was based on the formation of a colloidal solution of silicon (Percoll), as per the procedure, including: 1. Preparation of a 90% stock solution of Percoll, followed by preparation of two Percoll solutions of different percentages: 16% and 10%. An amount of 4 mL of each of the prepared 16% and 10% Percoll solutions was placed in six test tubes. A 90% Percoll (7.5% Percoll) was added to the precipitate obtained from the previous step from the last centrifugation. The obtained mixtures in all 12 tubes were centrifuged for 20 min at 15,000× g +4 °C. After centrifugation, three layers are formed in the tubes. The bottom layer contains mitochondria, the top layer contains lipids, and the middle layer—at the 16% to 10% Percoll limit—contains synaptosomes. The respective layer from each tube is removed through a glass pasteurizer and collected into one. Buffer B + glucose is added to it. The mixture was centrifuged at 10,000× g for 20 min at +4 °C. Thus, the isolation buffer is exchanged with the incubation buffer. After centrifugation, the pellet where the synaptosomes are mixed and made up with buffer B + glucose.
(§5) Synaptosomes and mitochondria were incubated with the test substances at a concentration of 50 µM for 1 h.
To the mitochondria was added 0.3 mL of 0.2% thiobarbituric acid and 0.25 mL of sulfuric acid (0.05 M), and the mixture was boiled for 30 min. After boiling, the tubes were placed on ice, and 0.4 mL of n-butanol was added to each, then centrifuged at 3500× g for 10 min. The amount of MDA was determined spectrophotometrically at 532 nm.

[5] = system: isolated rat brain mitochondria; assay: t-BuOOH-induced oxidative stress model: MDA production; conditions: 50 µM in combination with t-BuOOH (75 µM), compared to the toxic agent
[6] = system: isolated rat brain synaptosomes; assay: Neurotoxicity: reduced glutathione (GSH) level in synaptosomes, substances applied alone; format: cell-based; conditions: 50 µM applied alone, 1 h, compared to control
Method: as §3, §4, §5
(§6) After precipitation of the proteins with trichloroacetic acid, the thiol groups in the supernatant were determined by DTNB, which produced a yellow-colored compound that absorbs light at λ = 412 nm. After incubation, synaptosomes were centrifuged at 4000× g for 3 min. The supernatant was removed and the pellet taken for GSH determination. It was treated with 5% trichloroacetic acid, then left for 10 min on ice. It was centrifuged at 8000× g for 10 min (2 °C). The supernatant is taken for GSH determination and frozen at −20 °C. Immediately before measurement, the samples are neutralized with 5N NaOH [58].

[7] = system: isolated rat brain microsomes; assay: Neurotoxicity: MDA production in brain microsomes, substances applied alone; format: cell-based; conditions: 50 µM applied alone, compared to control
Method: as §1, §2

[8] = molecular target: T1, human recombinant MAOA enzyme (hMAOA) (Homo sapiens, UniProt P21397); assay: Human recombinant MAOA enzyme activity (fluorometric, Amplex Red); format: biochemical; conditions: read-out: IC50 (EC50), (µM ± SD) hMAOA
T1 sequence (P21397 1-527): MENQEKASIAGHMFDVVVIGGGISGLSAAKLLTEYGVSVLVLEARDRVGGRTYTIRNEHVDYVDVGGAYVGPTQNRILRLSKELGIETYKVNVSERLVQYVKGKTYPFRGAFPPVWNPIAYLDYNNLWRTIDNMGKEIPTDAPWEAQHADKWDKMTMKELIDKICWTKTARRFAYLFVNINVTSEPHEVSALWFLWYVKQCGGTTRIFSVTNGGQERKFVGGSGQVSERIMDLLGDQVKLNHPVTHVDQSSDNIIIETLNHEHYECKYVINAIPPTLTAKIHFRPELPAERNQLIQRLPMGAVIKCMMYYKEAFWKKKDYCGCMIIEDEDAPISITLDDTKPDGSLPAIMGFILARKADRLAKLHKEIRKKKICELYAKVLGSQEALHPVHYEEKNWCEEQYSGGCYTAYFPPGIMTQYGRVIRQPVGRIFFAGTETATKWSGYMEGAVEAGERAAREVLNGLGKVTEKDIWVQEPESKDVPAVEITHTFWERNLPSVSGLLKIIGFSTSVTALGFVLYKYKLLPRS

[9] = molecular target: T2, human recombinant MAOB enzyme (hMAOB) (Homo sapiens, UniProt P27338); assay: Human recombinant MAOB enzyme activity (fluorometric, Amplex Red); format: biochemical; conditions: for inhibition at 1 µM: compared to control (pure hMAOB); for IC50: read-out: IC50 (EC50), (µM ± SD) hMAOB;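 for all read-outs here: tyramine as substrate, H2O2 formation detected by horseradish peroxidase coupled Amplex Red fluorescence read at 570 and 690 nm, compounds incubated with enzyme 30 min at 37 °C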
T2 sequence (P27338 1-520): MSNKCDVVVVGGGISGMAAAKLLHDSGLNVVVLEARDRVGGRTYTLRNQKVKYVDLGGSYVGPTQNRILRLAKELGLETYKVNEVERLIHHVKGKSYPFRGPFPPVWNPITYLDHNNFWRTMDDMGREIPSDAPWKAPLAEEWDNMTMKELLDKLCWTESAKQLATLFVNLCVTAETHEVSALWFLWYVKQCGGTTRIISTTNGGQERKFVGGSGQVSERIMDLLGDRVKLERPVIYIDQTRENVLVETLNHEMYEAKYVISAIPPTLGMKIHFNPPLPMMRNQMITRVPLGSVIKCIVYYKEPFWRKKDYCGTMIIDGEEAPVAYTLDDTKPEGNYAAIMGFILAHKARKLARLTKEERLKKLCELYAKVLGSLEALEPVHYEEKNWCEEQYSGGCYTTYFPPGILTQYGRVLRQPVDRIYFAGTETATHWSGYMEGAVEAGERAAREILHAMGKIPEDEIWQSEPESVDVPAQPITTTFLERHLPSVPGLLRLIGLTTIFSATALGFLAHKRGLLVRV

[10] = system: isolated rat brain mitochondria; assay: Neurotoxicity: GSH level in brain mitochondria, substances applied alone; format: cell-based; conditions: 50 µM applied alone, compared to control
Method: as §3, §4
[…]. After centrifugation of the homogenate at 6000× g, a 0.04% solution of DTNB was added to the supernatant to give a yellow color, the determination being spectrophotometric at 412 nm.

[11] = system: isolated rat brain synaptosomes; assay: Neurotoxicity: synaptosomal viability (MTT), substances applied alone; format: cell-based; conditions: 50 µM applied alone, 1 h, compared to control (untreated synaptosomes)
Method: as §3, §4, §5
After 1 h incubation with the substances and toxic agent, synaptosomes were centrifuged on a microcentrifuge for 1 min at 15,000× g. The pellet was mixed gently with buffer B + glucose, and the supernatant where 6-OHDA was discarded to prevent oxidation of MTT. Centrifuge again at 15,000× g for 1 min. After the second wash, buffer B + glucose was added to the pellet. To the ‘washed’ synaptosomes, 60 µL of MTT solution is added. The plates were incubated with the MTT solution at 37 °C for 10 min. After incubation, the samples were centrifuged at 15,000× g for 2 min. The excess liquid was removed, and a DMSO solution was used to dissolve the formed formazan crystals. After dissolution, the amount of formazan is measured spectrophotometrically at λ = 580 nm.

[12] = system: isolated rat brain synaptosomes; assay: 6-OHDA-induced neurotoxicity model: GSH level; format: cell-based; conditions: 50 µM in combination with 6-OHDA (150 µM), compared to the toxic agent
Method: as §3, §4, §5
Synaptosomes were incubated with 6-OHDA (150 μM) for 1 h.
as §6

Structure (SMILES)	PAMPA BBB −logPe [1]	IC50 [8] [µM]	SI: hMAOB selectivity index = IC50(hMAOA)/IC50(hMAOB) [9]	inhibition at 1 µM [9] [%]	IC50 [9] [µM]	decrease of MDA production [2] [%]	preservation of GSH level [3] [%]	increase of MDA production [4] [%]	reduction of MDA production [5] [%]	decrease of glutathione (GSH) level [6] [%]	increase of MDA production [7] [%]	decrease of GSH level [10] [%]	decrease of synaptosomal viability [11] [%]	preservation of GSH level [12] [%]
CCOC(=O)c1cc(-c2ccc(Br)cc2)n(CC(=O)NN=Cc2ccc(Cl)cc2)c1C [7b]	4.416 ± 0.022 and 4.416	> 100	>181	40	0.551 ± 0.1	46	70	43	28	15	40	15	25	60
CCOC(=O)c1cc(-c2ccc(Br)cc2)n(CC(=O)NN=Cc2ccc(N(C)C)cc2)c1C [7a]	4.849 ± 0.043	> 100	>123	20	0.812 ± 0.1	34	40	63	14	25	54	20	30	50
CCOC(=O)c1cc(-c2ccc(Br)cc2)n(CC(=O)NN=Cc2ccc(OC)cc2OC)c1C [7e]	4.814 ± 0.15	> 100	>123	35	0.81 ± 0.09	31	50	50	10	25	52	25	30	40
CC(C)NCC(O)COc1cccc2ccccc12.Cl (stereo not drawn) [Propranolol HCl, reference compound]	4.389 ± 0.014	–	–	–	–	–	–	–	–	–	–	–	–	–

Second part, led by results:

PAMPA BBB −logPe [1]	IC50 [8] [µM]	SI: hMAOB selectivity index = IC50(hMAOA)/IC50(hMAOB) [9]	inhibition at 1 µM [9] [%]	IC50 [9] [µM]	Structure (SMILES)	decrease of MDA production [2] [%]	preservation of GSH level [3] [%]	increase of MDA production [4] [%]	reduction of MDA production [5] [%]	decrease of glutathione (GSH) level [6] [%]	increase of MDA production [7] [%]	decrease of GSH level [10] [%]	decrease of synaptosomal viability [11] [%]	preservation of GSH level [12] [%]
5.268 and 5.268 ± 0.014	> 100	>122	20	0.821 ± 0.1	CCOC(=O)c1cc(-c2ccc(Br)cc2)n(CCC(=O)NN=Cc2ccc(N(C)C)cc2)c1C [8a]	35	60	60	18	25	55	20	35	40
4.631 ± 0.047	> 100	>123	20	0.814 ± 0.2	CCOC(=O)c1cc(-c2ccc(Br)cc2)n(CCC(=O)NN=Cc2ccc([N+](=O)[O-])cc2)c1C [8c]	27	40	66	5	25	60	25	30	50
4.444 ± 0.004	> 100	>123	25	0.815 ± 0.1	CCOC(=O)c1cc(-c2ccc(Br)cc2)n(CCC(=O)NN=Cc2ccc(Cl)cc2)c1C [8b]	31	50	52	9	20	51	20	30	50
5.714 and 5.714 ± 0.041	> 100	>122	20	0.817 ± 0.09	CCOC(=O)c1cc(-c2ccc(Br)cc2)n(CCC(=O)NN=Cc2ccc(OC)cc2OC)c1C [8e]	25	60	69	11	20	63	25	35	50
